The target in the experiment is T1, N-type Ca^2+ channel in IMR-32 cells (Homo sapiens, UniProt Q00975).
T1 construct: host or cells: IMR-32 (differentiated with dibutyryl cAMP and bromodeoxyuridine)
Briefly: N-type Ca2+ channel blockade in IMR-32 cells (fluorescent Ca2+ indicator Indo-1). The experiment is classed as cell-based. Particulars: 5 μM nitrendipine present; for inhibition at 1 µM: IMR-32, 1 μM; for inhibition at 10 µM: IMR-32, 10 μM.

T1 sequence (Q00975 whole entry): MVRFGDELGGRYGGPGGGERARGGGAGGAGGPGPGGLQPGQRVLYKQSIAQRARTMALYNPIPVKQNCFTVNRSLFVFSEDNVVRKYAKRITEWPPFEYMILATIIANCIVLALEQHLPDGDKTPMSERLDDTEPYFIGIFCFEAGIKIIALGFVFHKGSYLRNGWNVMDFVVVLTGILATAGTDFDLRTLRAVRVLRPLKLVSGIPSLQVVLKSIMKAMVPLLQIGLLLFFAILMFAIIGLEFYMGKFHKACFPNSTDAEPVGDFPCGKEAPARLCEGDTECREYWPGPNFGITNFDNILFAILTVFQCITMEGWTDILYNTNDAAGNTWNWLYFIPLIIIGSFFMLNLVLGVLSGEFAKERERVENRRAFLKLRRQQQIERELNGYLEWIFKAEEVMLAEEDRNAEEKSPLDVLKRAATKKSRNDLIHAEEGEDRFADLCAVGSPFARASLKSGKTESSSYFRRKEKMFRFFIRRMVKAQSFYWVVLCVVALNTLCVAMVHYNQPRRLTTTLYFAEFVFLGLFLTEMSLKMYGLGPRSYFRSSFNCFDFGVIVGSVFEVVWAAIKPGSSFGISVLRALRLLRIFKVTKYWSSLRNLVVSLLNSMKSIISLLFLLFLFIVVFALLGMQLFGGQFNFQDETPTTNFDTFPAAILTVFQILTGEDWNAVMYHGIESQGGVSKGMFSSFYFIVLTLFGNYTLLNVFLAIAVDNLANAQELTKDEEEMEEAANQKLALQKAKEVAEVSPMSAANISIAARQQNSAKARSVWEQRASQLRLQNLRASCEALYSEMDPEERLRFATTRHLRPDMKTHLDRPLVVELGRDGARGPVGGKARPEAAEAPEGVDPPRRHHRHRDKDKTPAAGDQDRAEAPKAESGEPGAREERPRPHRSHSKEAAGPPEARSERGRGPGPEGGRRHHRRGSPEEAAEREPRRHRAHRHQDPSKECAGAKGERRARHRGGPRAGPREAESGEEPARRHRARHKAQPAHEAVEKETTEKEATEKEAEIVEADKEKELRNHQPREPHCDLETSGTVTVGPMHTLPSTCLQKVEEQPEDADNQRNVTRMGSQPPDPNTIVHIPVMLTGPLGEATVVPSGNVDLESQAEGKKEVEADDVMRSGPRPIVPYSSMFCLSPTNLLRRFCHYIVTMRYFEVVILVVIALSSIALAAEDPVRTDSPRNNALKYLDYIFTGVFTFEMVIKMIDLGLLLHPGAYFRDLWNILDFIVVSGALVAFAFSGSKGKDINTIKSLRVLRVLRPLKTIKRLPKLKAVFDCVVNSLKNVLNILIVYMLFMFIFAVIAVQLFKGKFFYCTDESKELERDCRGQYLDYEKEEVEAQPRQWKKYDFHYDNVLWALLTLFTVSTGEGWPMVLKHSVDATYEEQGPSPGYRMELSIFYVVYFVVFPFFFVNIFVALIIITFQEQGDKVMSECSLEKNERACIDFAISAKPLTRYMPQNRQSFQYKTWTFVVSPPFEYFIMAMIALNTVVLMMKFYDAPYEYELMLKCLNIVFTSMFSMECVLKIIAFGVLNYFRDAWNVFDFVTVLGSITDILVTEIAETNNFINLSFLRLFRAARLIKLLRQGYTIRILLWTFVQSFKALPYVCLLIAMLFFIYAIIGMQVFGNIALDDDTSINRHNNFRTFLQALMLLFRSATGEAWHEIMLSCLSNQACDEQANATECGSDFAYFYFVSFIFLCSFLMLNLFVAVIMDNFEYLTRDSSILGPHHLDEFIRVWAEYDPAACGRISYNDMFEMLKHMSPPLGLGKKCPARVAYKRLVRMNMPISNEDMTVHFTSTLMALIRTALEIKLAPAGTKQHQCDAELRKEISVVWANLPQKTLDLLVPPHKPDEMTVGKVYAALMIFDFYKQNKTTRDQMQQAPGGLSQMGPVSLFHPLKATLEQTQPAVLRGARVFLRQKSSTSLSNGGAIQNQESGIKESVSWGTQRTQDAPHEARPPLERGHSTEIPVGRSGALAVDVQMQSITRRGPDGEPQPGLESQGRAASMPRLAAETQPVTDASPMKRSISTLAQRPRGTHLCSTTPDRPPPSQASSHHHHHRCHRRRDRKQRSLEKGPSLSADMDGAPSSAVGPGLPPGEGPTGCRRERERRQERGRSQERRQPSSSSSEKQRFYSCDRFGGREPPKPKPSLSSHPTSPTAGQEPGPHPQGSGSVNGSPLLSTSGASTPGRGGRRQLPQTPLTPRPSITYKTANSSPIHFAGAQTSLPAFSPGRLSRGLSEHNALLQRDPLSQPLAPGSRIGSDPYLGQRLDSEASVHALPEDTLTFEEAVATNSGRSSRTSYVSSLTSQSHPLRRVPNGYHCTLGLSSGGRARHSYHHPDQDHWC

On to `CC(C)=CCN(c1ccc(CCC(C)(C)C)cc1)C1CCN(CCC(C)C)CC1` [Example 37, [4-(3,3-Dimethyl-butyl)-phenyl]-(3-methyl-but-2-enyl)-[1-(3-methyl-butyl)-piperidin-4-yl]-amine], for which at 1 µM the inhibition was 31% and the inhibition (commonly the change of the read-out against control, counted positive when it falls) at 10 µM stood at 92%.

Take `CC(C)=CCN(c1ccc(OCc2ccccc2)cc1)C1CCN(CCc2ccccc2)CC1` [Example 23, (4-Benzyloxy-phenyl)-(3-methyl-but-2-enyl)-(1-phenethyl-piperidin-4-yl)-amine]: the IC50 (commonly the concentration at which inhibition is half-maximal) was found to be 300 nM.

As for `CC(C)=CCN(c1ccc(OCc2ccccc2)cc1)C1CCN(C(=O)C2CC(C)CCN2CCC(C)C)CC1` (centres unmarked) [Example 17, {4-[(4-Benzyloxy-phenyl)-(3-methyl-but-2-enyl)-amino]-piperidin-1-yl}-[4-methyl-1-(3-methyl-butyl)-piperidin-2-yl]-methanone], 1 µM produced 86% inhibition and at 10 µM the inhibition was 76%.

Regarding `CC(C)=CCN(c1ccc(C(C)C)cc1)C1CCN(C(C)CO)CC1` (centres unmarked) [Example 32, 2-{4-[(4-lsopropyl-phenyl)-(3-methyl-but-2-enyl)-amino]-piperidin-1-yl}-propan-1-ol], 1 µM produced 0% inhibition and the inhibition at 10 µM came out at 70%.

Compound `CC(C)CCN(c1ccc(OCC2CCCCC2)cc1)C1CCN(CCC(C)(C)C)CC1` [Example 42, (4-Cyclohexylmethoxy-phenyl)-[1-(3,3-dimethyl-butyl)-piperidin-4-yl]-(3-methyl-butyl)-amine] came in with an inhibition at 1 µM of 60% and an inhibition at 10 µM of 81%.

`CC(C)=CCN(c1ccc(OC(C)C)cc1)C1CCN(Cc2ccc(F)cc2)CC1` [Example 35, [1-(4-Fluoro-benzyl)-piperidin-4-yl]-(4-isopropoxy-phenyl)-(3-methyl-but-2-enyl)-amine] yielded an inhibition at 1 µM of 37%.

The compound `CC(C)=CCN(c1ccc(C(C)C)cc1)C1CCN(Cc2c[nH]cn2)CC1` [Example 31, [1-(1H-Imidazol-4-ylmethyl)-piperidin-4-yl]-(4-isopropyl-phenyl)-(3-methyl-but-2-enyl)-amine] gave an inhibition at 1 µM of 7% and an inhibition at 10 µM of 62%.

As to `CC(C)=CCN(c1ccc(OCc2ccccc2)cc1)C1CCN(Cc2ccc(S(C)(=O)=O)cc2)CC1` [Example 24], half-maximal inhibition (IC50) required 1800 nM.

As for `CC(C)=CCN(c1ccc(CCC(C)(C)C)cc1)C1CCN(CCC(C)(C)C)CC1` [Example 38, [4-(3,3-Dimethyl-butyl)-phenyl]-[1-(3,3-dimethyl-butyl)-piperidin-4-yl]-(3-methyl-but-2-enyl)-amine], the inhibition at 1 µM amounted to 38% and testing at 10 µM gave an inhibition of 83%.

On to `CC(C)=CCN(c1ccc(OCc2ccccc2)cc1)C1CCN(C(=O)C2CN(C)CCN2CCC(C)C)CC1` (centres unmarked) [Example 14, {4-[(4-Benzyloxy-phenyl)-(3-methyl-but-2-enyl)-amino]-piperidin-1-yl}-[4-methyl-1-(3-methyl-butyl)-piperazin-2-yl]-methanone], for which testing at 1 µM gave an inhibition of 44% and testing at 10 µM gave an inhibition of 88%.

In the case of `CC(C)=CCN(c1ccc(OCc2ccccc2)cc1)C1CCN(C(=O)C2CCN(CCC(C)C)CC2)CC1` [Example 13, {4-[(4-Benzyloxy-phenyl)-(3-methyl-but-2-enyl)-amino]-piperidin-1-yl}-[1-(3-methyl-butyl)-piperidin-4-yl]-methanone], the inhibition at 1 µM was 37% and the inhibition at 10 µM worked out at 75%.

Turning to `CC(C)=CCN(c1cccc(OCc2ccccc2)c1)C1CCN(CCC(C)(C)C)CC1` [Example 46, (3-Benzyloxy-phenyl)-[1-(3,3-dimethyl-butyl)-piperidin-4-yl]-(3-methyl-but-2-enyl)-amine], testing at 1 µM gave an inhibition of 55% and the inhibition at 10 µM turned out to be 98%.

The compound `CC(C)=CCN(c1ccc(OCc2ccccc2)cc1)C1CCN(Cc2ccco2)CC1` [Example 21, (4-Benzyloxy-phenyl)-(1-furan-2-ylmethyl-piperidin-4-yl)-(3-methyl-but-2-enyl)-amine] had an IC50 of 3900 nM. In other words, the single-digit micromolar range.

Compound `CC(C)CCN(c1ccc(OCC2CCCCC2)cc1)C1CCN(CCC(C)O)CC1` (centres unmarked) [Example 41, 4-{4-[(4-Cyclohexylmethoxy-phenyl)-(3-methyl-butyl)-amino]-piperidin-1-yl}-butan-2-ol] yielded an IC50 of 1500 nM. This IC50 is about 2.6-fold lower than that of the compound before.

`CC(C)=CCN(c1ccc(C(C)C)cc1)C1CCN(Cc2cccnc2)CC1` [Example 30, (4-Isopropyl-phenyl)-(3-methyl-but-2-enyl)-(1-pyridin-3-ylmethyl-piperidin-4-yl)-amine] yielded an inhibition at 1 µM of 18% and an inhibition at 10 µM of 79%.

Turning to `CC(C)=CCN(c1ccc(OCc2ccccc2)cc1)C1CCN(Cc2ccc(Br)cc2)CC1` [Example 4, (4-Benzyloxy-phenyl)-[1-(4-bromo-benzyl)-piperidin4-yl]-(3-methyl-but-2-enyl)-amine], testing at 1 µM gave an inhibition of 63% and testing at 10 µM gave an inhibition of 94%.

Consider `CC(C)=CCN(c1ccc(C(C)C)cc1)C1CCN(C(=O)[C@@H](O)CC(C)C)CC1` [Example 45, (S)-2-Hydroxy-1-{4-[(4-isopropyl-phenyl)-(3-methyl-but-2-enyl)-arnino]-piperidin-1-yl}-4-methyl-pentan-1-one], for which at 1 µM the inhibition was 28% and the inhibition at 10 µM amounted to 85%.

In the case of `CC(C)=CCN(c1ccc(OC(C)C)cc1)C1CCN(CCC(C)(C)C)CC1` [Example 36], 1 µM produced 26% inhibition and the inhibition at 10 µM worked out at 74%.

For `CC(C)=CCN(c1ccc(OCc2ccccc2)cc1)C1CCN(Cc2ccc(C(C)(C)C)cc2)CC1` [Example 3, (4-Benzyloxy-phenyl)-[1-(4-tert-butyl-benzyl)-piperidin-4-yl]-(3-methyl-but-2-enyl)-amine], at 1 µM the inhibition was 96%.

On to `CC(C)=CCN(c1ccc(C(C)C)cc1)C1CCN(CCC(C)O)CC1` (centres unmarked) [Example 27, 4-{4[(4Isopropyl-phenyl)-(3-methyl-but-2-enyl)-amino]-piperidin-1-yl}-butan-2ol], for which the inhibition at 1 µM came out at 15%.

Compound `CC(C)=CCN(c1ccc(C(C)C)cc1)C1CCN(Cc2ccc[nH]2)CC1` [Example 33, (4-Isopropyl-phenyl)-(3-methyl-but-2-enyl)-[1-(1H-pyrrol-2-ylmethyl)-piperidin-4-yl]-amine] gave an inhibition at 1 µM of 54% and an inhibition at 10 µM of 98%.

In the case of `CC(C)=CCN(c1ccc(OCc2ccccc2)cc1)C1CCN(C(=O)C2CCCCN2CCC(C)C)CC1` (centres unmarked) [Example 11, {4-[(4-Benzyloxy-phenyl)-(3-methyl-but-2-enyl)-amino]-piperidin-1-yl}-[1-(3-methyl-butyl)-piperidin-2-yl]-methanone], the inhibition at 1 µM was found to be 41% and 10 µM produced 80% inhibition.

`CC(C)=CCN(c1ccc(OCc2ccccc2)cc1)C1CCN(C(=O)C2CCCC(C)N2CCC(C)C)CC1` (centres unmarked) [Example 16, {4-[(4-Benzyloxy-phenyl)-(3-methyl-but-2-enyl)-amino]-piperidin-1-yl}-[6methyl-1-(3-methyl-butyl)-piperidin-2-yl]-methanone] had an inhibition at 1 µM of 45% and an inhibition at 10 µM of 78%.

The compound `CC(C)=CCN(c1ccc(OCc2ccccc2)cc1)C1CCN(C(=O)C2CCCN(CCC(C)C)C2)CC1` (centres unmarked) [Example 12, {4-[(4-Benzyloxy-phenyl)-(3-methyl-but-2-enyl)-amino]-piperidin-1-yl}-[1-(3-methyl-butyl)-piperidin-3-yl]-methanone] returned an inhibition at 1 µM of 49% and an inhibition at 10 µM of 75%.

Source of the values: patent US6251919A, “Heterocyclic substituted aniline calcium channel blockers” (Warner-Lambert, priority 1999, dated 2001).
